Data on 2 compounds can be found in patent US20250195460A1, “MEDIUM CHAIN TRIGLYCERIDE AND SHORT CHAIN FATTY ACID COMPOSITIONS & METHODS OF USE THEREOF” (priority 2023, published 2025).

For the assay, the system named is HepG2 cells. As to the kind of experiment: Ketogenic activity in HepG2 cells (ketone levels in cell supernatants). The assay is classed as cell-based. The conditions noted are these: each component 2.4 mM, glucose-free media, up to 135 minutes, FIG. 1. How it is done:
In this Example, the ketogenic activities of various compositions were tested in HepG2 cells. More particularly, the ketogenic activity of butyric acid (2.4 mM) (“BA”) alone; beta-hydroxybutyrate (2.4 mM) (“BHB”) alone; caprylic acid (2.4 mM) (“CA”) alone; caprylic acid (2.4 mM) combined with butyric acid (2.4 mM); and a combination of caprylic acid (2.4 mM), butyric acid (2.4 mM), and beta-hydroxybutyrate (2.4 mM) were all tested in HepG2 cells. Each compound (or combination of compounds) was added to a solvent containing glucose-free media that included 10% fetal bovine serum (FBX), 1 mM sodium pyruvate, and 1 mM glutamine.
Each test composition was administered to HepG2 cells in a cell culture plate. Each composition was tested with three replicates. Ketone levels in the HepG2 cell supernatants were measured at the time of administration (time=0) and every 45 minutes thereafter, up to 135 minutes. The results are presented as the difference between the ketone concentration that was measured at each time point (i.e., measured every 45 minutes) and the ketone concentration that was measured at time=0 for each test composition, such that any positive measurement indicates an increase in ketone levels from the baseline time=0 measurement.

In the case of `CCCC(=O)O` [butyric acid], the “induction of ketogenesis (generation of ketones)” value is recorded as “neither butyric acid alone, nor caprylic acid alone, was shown to induce ketogenesis”.
In the case of `CCCCCCCC(=O)O` [caprylic acid, caprylic acid (octanoic acid)] it was “neither butyric acid alone, nor caprylic acid alone, was shown to induce ketogenesis”.
